These results are taken from US20190365776A1, “THERAPEUTIC AGENT FOR OCULAR FUNDUS DISEASE” (KYUSHU UNIVERSITY, NATIONAL UNIVERSITY CORPORATION, priority 2013, published 2019).

In test [1] the test system is b-END3 (bEND.3) mouse brain microvascular endothelial cells. Kind of test: Tight junction test: Claudin-5 immunostaining in b-END3 cells. Particulars: pretreatment 3 μM or 30 μM, 3 hours; VEGF 25 ng/mL or IL-6 10 ng/mL, 24 hours. It counts as cell-based. The procedure: (§1) According to a conventional method, b-END3 (bEND.3: ATCC CRL-2299™) cells, which are mouse brain microvascular endothelial cells, were subcultured in 3.5 cm dishes (9×10^5 cells/dish), and a test was started from day 6 after subculture. […]
(§2) The cells after the test were subjected to immunostaining according to the following procedure to evaluate the expression of Claudin-5 or F-Actin. […] Then, a cover glass-sized cell sample was prepared by trimming with a cotton swab, enclosed with a Dako pen, blocked with 10% normal goat serum (10% normal goat serum ready-to-use (Invitrogen)) (30 min, ordinary temperature), and allowed to stand at 4° C. overnight. […]

Test [2] shares this test system. Kind of test: Tight junction test: F-Actin immunostaining in b-END3 cells. Particulars: pretreatment 3 μM or 30 μM, 3 hours; VEGF 25 ng/mL or IL-6 10 ng/mL, 24 hours. It is filed as cell-based. The procedure: as §1, §2
The subject of test [3] is mice OIR (Oxygen-Induced Retinopathy) model. Kind of test: Mice OIR (oxygen-induced retinopathy) model, flat-mounted retina. It counts as in vivo, C57BL/6JJcl mice. The note with it: ocular instillation 20 μL three times a day, day 12 to day 17 after birth, flat mount. The procedure:
The effectiveness of (S)-(−)-1-(4-fluoro-5-isoquinolinesulfonyl)-2-methyl-1,4-homopiperazine (compound 1) in a mice OIR model commonly used as a model of ischemic retinopathy such as diabetic retinopathy was examined in the following manner. Compound 1 solutions: 0.4% solution, 0.8% solution (instillation volume: 20 μL) Fasudil solution: 0.4% solution (instillation volume: 20 μL) Test animals: C57BL/6JJcl mice (sex: male, 8 to 14 mice per group) C57BL/6JJcl mice born on the same day were reared in a 75%-oxygen environment from day 7 after birth, and were then transferred to a normal indoor environment on day 12 after birth to start administration by ocular instillation. Test groups were a saline instillation group (control), a 0.4% compound 1 solution instillation group, a 0.8% compound 1 solution instillation group, and a 0.4% fasudil solution instillation group, and saline, the compound 1 solution, or the fasudil solution was administered by ocular instillation three times a day. On day 17 after birth, ischemic retinal areas (non-perfused areas) and neovascular areas were quantified for evaluation by flat-mounting or fluorescein fundus angiography. More specifically, 1 g/kg of pentobarbital (Nembutal) was administered intraperitoneally for euthanasia under deep anesthesia, and then both eyeballs were excised and fixed with 4% paraformaldehyde (PFA) at 37° C. for 1 hour, and the corneal limbus was circumferentially incised to remove the cornea and iris from the eyeball. Then, after fixation with 4% PFA at 37° C. for 1 hour, the lens, sclera, and choroid were removed, and the eye cup including the retina was isolated. Further, the retina was fixed with 4% PFA at 37° C. for 3 hours, washed with PBS three times (15 min per wash, 37° C.), dehydrated (methanol 50% 100%, 10 min per methanol treatment, 37° C.), washed with PBS three times (15 min per wash, 37° C.), and blocked with Blocking Buffer (1% BSA, 0.5% Triton-X in PBS) for 60 minutes (37° C.). Then, the retina was treated with a primary antibody (0.7% FITC-conjugates Anti-lectin Ab in PBS, 4° C., overnight) and washed with PBS three times (15 min per wash, 37° C.). Then, 4 to 6 cuts were radially made in the eye cup, and the flat-mounted retina was covered with Crystal Mount. Then, the image of the flat-mounted retina was taken with a fluorescence microscope (BZ-9000, KEYENCE Corp, Osaka, Japan), and the proportion of the non-perfused area to the entire retina and the proportion of the neovascular area to the entire retina were calculated by the following formulas in NIH image J software. The thus obtained values were converted to relative values by regarding the obtained values of the saline instillation group (control) as 100%, and statistical analysis was performed by Wilcoxon test. Non-perfused area=area of avascular region/area of entire retina Neovascular area=area of neovascular region/area of entire retina

As to `C[C@H]1CNCCCN1S(=O)(=O)c1cccc2cncc(F)c12` [compound 1, (S)-(−)-1-(4-fluoro-5-isoquinolinesulfonyl)-2-methyl-1,4-homopiperazine], in test [1], the “Claudin-5 expression decreased by VEGF stimulation or IL-6 stimulation” value is on record as “improvement in Claudin-5 expression”. Also, the “F-Actin polymerization caused by VEGF stimulation or IL-6 stimulation” value in test [2] was “suppression of F-Actin polymerization”. In addition, in test [3] (0.4% solution), the “relative value of the neovascular area (saline instillation group = 100%)” value is 58.2% and the “relative value of the non-perfused area (saline instillation group = 100%)” value came to 77.0%. Besides, in test [3] (0.8% solution), the “relative value of the neovascular area (saline instillation group = 100%)” value turned out to be 52.7% and the “relative value of the non-perfused area (saline instillation group = 100%)” value amounted to 58.1%.
